Values of other authors in patent publication US8426044B2, “Method for imparting antimicrobial activity to a medical device” (Board of Regents, The University of Texas System, priority 2009, dated 2013).

How the values were obtained:
[1] = for solubility in organic solvents: organic solvents incl. alcohols, ketones, ethers, aldehydes, acetonitrile, acetic acid, methylene chloride, chloroform
[2] = system: Pseudomonas aeruginosa cells embedded in a biofilm; conditions: MBC for the identical strain grown in liquid suspension

Compound	solubility in organic solvents [1]	solubility in water [1]	antibiotic level unable to kill biofilm-embedded cells [2]
[H]/N=C(\N/C(=N/[H])NCCCCCCNC(=N)NC(=N)Nc1ccc(Cl)cc1)Nc1ccc(Cl)cc1 [Chlorhexidine]	soluble in both water and organic solutions	soluble in both water and organic solutions	–
CO[C@H]1/C=C/O[C@@]2(C)Oc3c(C)c(O)c4c(O)c(c(/C=N/N5CCN(C)CC5)c(O)c4c3C2=O)NC(=O)/C(C)=C\C=C\[C@H](C)[C@H](O)[C@@H](C)[C@@H](O)[C@@H](C)[C@H](OC(C)=O)[C@@H]1C [Rifampin]	freely soluble in acidic aqueous solutions and organic solutions	very slightly soluble in water	–
NC[C@H]1O[C@H](O[C@H]2[C@H](O)[C@@H](O[C@H]3O[C@H](CO)[C@@H](O)[C@H](N)[C@H]3O)[C@H](N)C[C@@H]2N)[C@H](N)C[C@@H]1O [tobramycin]	–	–	greater than 50 times the minimum bactericidal concentration (MBC)
